This passage reports Activity results from ChEMBL document CHEMBL1141838, “Application of lipase-catalyzed regioselective esterification in the preparation of digitonin derivatives” (J Nat Prod, 1999).

Each structure is given as a SMILES string.

The nature of the data set: Toxic hemolytic activity against RBC assessed as hemolytic index. It counts as ADME, cell-based. The conditions noted are these: erythrocyte.
Turning to `CC(=O)O[C@@H]1CO[C@@H](O[C@@H]2[C@@H](O)[C@H](O[C@@H]3[C@H](O)[C@@H](O[C@@H]4O[C@H](CO)[C@H](O)[C@H](O[C@@H]5O[C@H](CO)[C@@H](O)[C@H](O)[C@H]5O)[C@H]4O)[C@H](O[C@@H]4C[C@@H]5CC[C@H]6[C@@H]7[C@H](O)[C@@H]8O[C@]9(CC[C@@H](C)CO9)[C@@H](C)[C@@H]8[C@@]7(C)CC[C@@H]6[C@@]5(C)C[C@H]4O)O[C@@H]3CO)O[C@H](CO)[C@H]2O)[C@@H](O)[C@H]1O`, the Activity is 52000.
For `CC(=O)OC[C@H]1O[C@@H](O[C@H]2[C@@H](O)[C@@H](CO)O[C@@H](O[C@H]3[C@H](O[C@@H]4C[C@@H]5CC[C@H]6[C@@H]7[C@H](O)[C@@H]8O[C@]9(CC[C@@H](C)CO9)[C@@H](C)[C@@H]8[C@@]7(C)CC[C@@H]6[C@@]5(C)C[C@H]4O)O[C@H](CO)[C@H](O[C@@H]4O[C@H](CO)[C@@H](O)[C@H](O[C@@H]5OC[C@@H](OC(C)=O)[C@H](O)[C@@H]5O)[C@H]4O)[C@@H]3O)[C@@H]2O)[C@H](O)[C@@H](O)[C@@H]1O`, the Activity amounted to 43000.
Turning to `CC(=O)OC[C@H]1O[C@@H](O[C@H]2[C@@H](O)[C@@H](CO)O[C@@H](O[C@H]3[C@H](O[C@@H]4C[C@@H]5CC[C@H]6[C@@H]7[C@H](O)[C@@H]8O[C@]9(CC[C@@H](C)CO9)[C@@H](C)[C@@H]8[C@@]7(C)CC[C@@H]6[C@@]5(C)C[C@H]4O)O[C@H](CO)[C@H](O[C@@H]4O[C@H](CO)[C@@H](O)[C@H](O[C@@H]5OC[C@@H](O)[C@H](O)[C@@H]5O)[C@H]4O)[C@@H]3O)[C@@H]2O)[C@H](O)[C@@H](O)[C@@H]1O`, the Activity stood at 40000.
As to `C[C@@H]1CC[C@@]2(OC1)O[C@H]1[C@@H](O)[C@H]3[C@@H]4CC[C@H]5C[C@@H](O[C@@H]6O[C@H](CO)[C@H](O[C@@H]7O[C@H](CO)C(O)[C@H](O[C@@H]8OC[C@@H](O)[C@H](O)[C@H]8O)[C@H]7O[C@@H]7O[C@H](CO)[C@H](O)[C@H](O[C@@H]8O[C@H](CO)[C@@H](O)[C@H](O)[C@H]8O)[C@H]7O)[C@H](O)[C@H]6O)[C@H](O)C[C@]5(C)[C@H]4CC[C@]3(C)[C@H]1[C@@H]2C` (some centres undefined) [DIGITONIN], the Activity amounted to 135000.
